# Source: publication PMC2778353, “Toxicity of Xanthene Food Dyes by Inhibition of Human Drug-Metabolizing Enzymes in a Noncompetitive Manner” (Journal of Environmental and Public Health, 2009)
# Like-named read-outs stand apart in the source and are kept apart here.
# How the values were obtained:
# [1] = molecular target: T1, UGT1A6 (Homo sapiens, UniProt P19224); assay: Inhibition of UGT1A6 activity (glucuronidation of p-nitrophenol) in pooled human liver microsomes; conditions: for Difference of UGT1A6 activity between dark and light: 0.3 mM p-NP
# T1 sequence (P19224 27-532): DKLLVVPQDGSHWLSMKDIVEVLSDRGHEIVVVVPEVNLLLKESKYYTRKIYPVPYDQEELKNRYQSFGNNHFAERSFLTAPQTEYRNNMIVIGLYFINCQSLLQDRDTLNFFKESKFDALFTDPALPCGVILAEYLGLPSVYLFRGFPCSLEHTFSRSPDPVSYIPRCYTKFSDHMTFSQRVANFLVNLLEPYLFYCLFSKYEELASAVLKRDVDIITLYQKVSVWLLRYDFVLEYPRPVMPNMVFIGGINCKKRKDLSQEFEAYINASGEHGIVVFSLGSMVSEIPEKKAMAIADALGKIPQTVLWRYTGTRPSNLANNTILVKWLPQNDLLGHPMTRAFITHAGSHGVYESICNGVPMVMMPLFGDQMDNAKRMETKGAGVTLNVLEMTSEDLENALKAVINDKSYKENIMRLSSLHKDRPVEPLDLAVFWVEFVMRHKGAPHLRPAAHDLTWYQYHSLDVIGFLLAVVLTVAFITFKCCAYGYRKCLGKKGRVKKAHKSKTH
# Method: (§2) The enzyme source to measure CYP2A6, CYP3A4, and UGT1A6 activities was pooled human liver microsomes (HLMs), purchased from Gentest (Woburn, MA, USA). […] These enzymes were stored at −80°C.
# (§3) The microassay method of UGT activity in this study was carried out according to previous reports [5, 51]. […] In order to investigate the role of reactive oxygen species on the inhibition of UGT1A6 by dyes, we studied the effect of SOD and catalase.
# (§4) The inhibition of UGT1A6 activity with p-nitrophenol [5] and of UGT2B7 with androsterone by dyes was studied.
# [2] = molecular target: T2, UGT2B7 (Homo sapiens, UniProt P16662); assay: Inhibition of UGT2B7 activity (glucuronidation of androsterone), Sf9 cell membrane; type: biochemical
# T2 construct: purchased Gentest; host or cells: Sf9 cells, baculovirus expression system
# T2 sequence (P16662 24-529): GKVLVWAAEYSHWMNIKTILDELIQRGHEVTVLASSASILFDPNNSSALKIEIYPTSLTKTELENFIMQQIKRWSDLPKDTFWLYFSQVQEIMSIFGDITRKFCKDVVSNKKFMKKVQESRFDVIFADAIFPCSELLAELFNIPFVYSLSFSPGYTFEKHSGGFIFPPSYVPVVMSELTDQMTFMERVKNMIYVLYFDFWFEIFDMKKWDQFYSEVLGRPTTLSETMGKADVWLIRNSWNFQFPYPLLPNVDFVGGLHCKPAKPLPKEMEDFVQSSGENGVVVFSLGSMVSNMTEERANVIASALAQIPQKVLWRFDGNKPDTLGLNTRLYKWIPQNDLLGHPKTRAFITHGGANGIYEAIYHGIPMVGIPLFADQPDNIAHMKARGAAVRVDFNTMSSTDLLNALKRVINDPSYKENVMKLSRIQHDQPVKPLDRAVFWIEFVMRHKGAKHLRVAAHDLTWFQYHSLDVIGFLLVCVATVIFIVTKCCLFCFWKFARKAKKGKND
# Method: (§1) These enzymes were stored at −80°C. Superoxide dismutase (SOD) and catalase are products of Sigma.
# [3] = molecular target: T3, CYP3A4 (Homo sapiens, UniProt P08684); assay: Inhibition of CYP3A4 activity in pooled human liver microsomes (7-benzoyloxy-4-(trifluoromethyl)-coumarin substrate); type: biochemical; conditions: for IC50: pooled human liver microsomes
# T3 construct: pooled human liver microsomes (HLMs), purchased from Gentest; tissue Gentest (Woburn, MA, USA); host or cells: pooled human liver microsomes
# T3 sequence (P08684 whole entry): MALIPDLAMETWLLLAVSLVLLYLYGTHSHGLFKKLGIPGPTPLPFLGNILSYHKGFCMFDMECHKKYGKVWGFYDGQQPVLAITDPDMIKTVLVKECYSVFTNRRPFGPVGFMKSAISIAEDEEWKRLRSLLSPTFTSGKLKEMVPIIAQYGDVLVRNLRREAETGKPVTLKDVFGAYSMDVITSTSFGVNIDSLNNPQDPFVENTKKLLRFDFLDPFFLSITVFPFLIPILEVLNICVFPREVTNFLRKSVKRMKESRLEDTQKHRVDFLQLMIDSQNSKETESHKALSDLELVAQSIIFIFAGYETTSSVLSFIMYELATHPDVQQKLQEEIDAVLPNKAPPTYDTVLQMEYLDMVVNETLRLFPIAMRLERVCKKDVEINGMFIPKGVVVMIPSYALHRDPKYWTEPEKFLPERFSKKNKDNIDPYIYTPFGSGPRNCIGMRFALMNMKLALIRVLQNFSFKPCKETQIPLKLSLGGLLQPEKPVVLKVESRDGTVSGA
# Method: as §1
# CYP3A4 is a major enzyme among phase I drug-metabolizing enzymes and reacts with half of all drugs. To determine the influence of CYP3A4 activity by food dyes, the color of dyes influencing the fluorometric measurement over 30 μM dye concentration was measured. This background was subtracted from the measurement of color pigments.
# [4] = molecular target: P-glycoprotein (Homo sapiens, UniProt P08183); assay: biochemical
# P-glycoprotein, sequence (P08183 whole entry): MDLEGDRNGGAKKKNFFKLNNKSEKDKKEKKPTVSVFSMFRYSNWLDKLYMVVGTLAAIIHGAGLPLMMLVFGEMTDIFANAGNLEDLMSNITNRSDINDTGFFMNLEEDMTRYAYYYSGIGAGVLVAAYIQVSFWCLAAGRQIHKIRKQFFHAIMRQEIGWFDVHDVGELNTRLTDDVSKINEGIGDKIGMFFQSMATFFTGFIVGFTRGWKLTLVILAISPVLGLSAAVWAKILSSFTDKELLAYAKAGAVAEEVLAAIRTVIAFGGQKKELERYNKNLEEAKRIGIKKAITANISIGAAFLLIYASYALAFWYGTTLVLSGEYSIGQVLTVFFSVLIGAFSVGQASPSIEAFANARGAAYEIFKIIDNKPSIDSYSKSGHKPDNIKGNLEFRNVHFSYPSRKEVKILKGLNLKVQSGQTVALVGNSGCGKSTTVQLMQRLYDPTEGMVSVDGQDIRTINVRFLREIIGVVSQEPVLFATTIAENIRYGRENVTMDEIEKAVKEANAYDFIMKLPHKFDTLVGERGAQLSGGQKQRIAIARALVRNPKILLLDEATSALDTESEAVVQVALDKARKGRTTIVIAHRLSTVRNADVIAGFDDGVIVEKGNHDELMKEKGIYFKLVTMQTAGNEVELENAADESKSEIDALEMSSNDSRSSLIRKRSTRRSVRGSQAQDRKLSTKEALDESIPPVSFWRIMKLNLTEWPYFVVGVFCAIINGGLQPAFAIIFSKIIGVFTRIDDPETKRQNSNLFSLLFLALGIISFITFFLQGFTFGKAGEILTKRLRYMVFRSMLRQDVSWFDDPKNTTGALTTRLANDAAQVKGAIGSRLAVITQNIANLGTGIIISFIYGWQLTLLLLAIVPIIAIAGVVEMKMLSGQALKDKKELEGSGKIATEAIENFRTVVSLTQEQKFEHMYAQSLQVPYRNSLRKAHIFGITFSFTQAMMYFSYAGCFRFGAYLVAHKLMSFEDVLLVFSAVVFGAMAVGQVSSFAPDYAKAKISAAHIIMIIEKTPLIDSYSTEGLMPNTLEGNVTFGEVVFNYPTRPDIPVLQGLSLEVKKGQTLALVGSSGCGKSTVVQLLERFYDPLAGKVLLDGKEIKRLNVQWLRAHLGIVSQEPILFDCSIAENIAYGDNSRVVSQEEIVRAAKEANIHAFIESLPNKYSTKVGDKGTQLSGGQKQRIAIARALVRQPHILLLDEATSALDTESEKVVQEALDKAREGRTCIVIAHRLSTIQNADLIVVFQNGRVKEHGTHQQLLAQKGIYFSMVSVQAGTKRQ
# Method: as §1
# [5] = molecular target: T1, UGT1A6; assay: in vitro
# Method: as §2, §3, §4
# [6] = molecular target: P-glycoprotein (ATPase activity) (Homo sapiens, UniProt P08183); assay: in vitro; conditions: human
# P-glycoprotein (ATPase activity), sequence (P08183 whole entry): as above
# Method: as §1
# [7] = glucuronidation inhibition by RB
# [8] = human, pooled human liver microsomes, probe p-nitrophenol
# [9] = read-out: IC50 value P-glycoprotein, ATPase activity of P-gp membrane
# [10] = human, probe 7-benzoyloxy-4-(trifluoromethyl)-coumarin
compound,measurement,setting,value
"N[C@@H](Cc1c[nH]cn1)C(=O)O [histidine, reference compound]",Inhibition of glucuronidation of p-NP by UGT1A6 by quencher itself,[1]; 1 to 20 mM,no inhibition
same,Prevention of RB inhibition of UGT1A6 by 1O2 quencher,[1]; [7],significantly prevented
"O=C1OC2(c3ccccc31)c1cc(I)c(O)c(I)c1Oc1c2cc(I)c(O)c1I [Erythrosine B (ET), erythrosine]",Type of inhibition of UGT2B7,[2],non-competitive
same,Inhibition of UGT2B7 (in words),[2]; androsterone glucuronidation,inhibited
same,Inhibition of CYP3A4 at 30 μM,[3]; 30 μM dye,completely inhibited
same,IC50,[4],15.6 µM
same,Inhibition of P-gp (in words),[4],well inhibited
same,IC50,[1],50 µM
same,Inhibition of UGT1A6 activity (in words),[1],greatest inhibition
same,Substrate activity for UGT1A6,[1],no substrate activity
same,Type of inhibition of UGT1A6 (Lineweaver-Burk plots),[1],non-competitive
same,IC50,[1]; [8],70 µM
"O=S(=O)([O-])c1ccc(N=Nc2c(O)ccc3cc(S(=O)(=O)[O-])ccc23)cc1.[Na+].[Na+] [Sunset yellow FCF (SY), sunset yellow FCF]",IC50,[3],> 1000 µM
same,IC50,[4]; [9],> 1000 µM
same,Inhibition of UGT1A6 activity (in words),[1],no inhibition
"[N-]=[N+]=[N-].[Na+] [NaN3, reference compound]",Prevention of RB inhibition of UGT1A6 by 1O2 quencher,[1],significantly prevented
same,Inhibition of glucuronidation of p-NP by UGT1A6 by quencher itself,[1]; 1 to 20 mM,no inhibition
"O=C(O)c1c(Cl)c(Cl)c(Cl)c(Cl)c1-c1c2cc(Br)c(=O)c(Br)c-2oc2c(Br)c(O)c(Br)cc12 [Phloxine (PL), phloxine]",Type of inhibition of UGT2B7,[2],non-competitive
same,IC50,[5],40 µM
same,Inhibition of CYP3A4 (in words),[3],showed inhibition
same,IC50,[3]; [10],5.6 µM
same,IC50,[6],24.5 µM
same,Inhibition of P-gp (in words),[4],well inhibited
same,Type of inhibition of UGT1A6 (Lineweaver-Burk plots),[1],non-competitive
"CC1=C(/C=C/C(C)=C/C=C/C(C)=C/C=C/C=C(C)/C=C/C=C(C)/C=C/C2=C(C)CCCC2(C)C)C(C)(C)CCC1 [β-carotene, reference compound]",Inhibition of glucuronidation of p-NP by UGT1A6 by quencher itself,[1]; 0.2–0.5 mM,no inhibition
same,Prevention of RB inhibition of UGT1A6 by 1O2 quencher,[1]; [7],did not
catalase,Prevention of ET inhibition of UGT1A6,[1]; added to the mixture of UGT1A6 inhibition by ET,no prevention
"O=S(=O)(O)c1cc(S(=O)(=O)O)c2c(N=Nc3ccc(S(=O)(=O)O)c4ccccc34)c(O)ccc2c1 [New coccine (NC), new coccine]",IC50,[3],> 1000 µM
same,IC50,[4]; [9],> 1000 µM
same,IC50,"[1]; read-out: IC50 value UGT1A6, pooled human liver microsomes, p-nitrophenol glucuronidation",> 1000 µM
"O=C(O)c1c(Cl)c(Cl)c(Cl)c(Cl)c1-c1c2cc(I)c(=O)c(I)c-2oc2c(I)c(O)c(I)cc12 [Rose Bengal (RB), rose bengal]",Type of inhibition of UGT2B7,[2],non-competitive
same,Inhibition of CYP3A4 (in words),[3],showed inhibition
same,IC50,[3]; [10],21.2 µM
same,IC50,[6],11.7 µM
same,Inhibition of P-gp (in words),[4],well inhibited
same,Type of inhibition of UGT1A6 (Lineweaver-Burk plots),[1],non-competitive
same,Difference of UGT1A6 activity between dark and light,[1]; 0.1 mM RB,could not find a significant difference
same,Difference of UGT1A6 activity between dark and light,"[1]; 0.01, 0.02, and 0.05 mM RB",significant difference
same,UGT1A6 activity in D2O relative to H2O in presence of RB,[1]; D2O solution versus water,approximately half
same,IC50,[1]; [8],15 µM
"O=C([O-])C1=NN(c2ccc(S(=O)(=O)[O-])cc2)C(=O)C1N=Nc1ccc(S(=O)(=O)[O-])cc1.[Na+].[Na+].[Na+] (stereo not drawn) [Tartrazine (TT), tartrazine]",IC50,[3],> 1000 µM
same,IC50,[4],> 1000 µM
same,Inhibition of UGT1A6 activity (in words),[1],no inhibition
"CCN(CC)c1ccc2c(-c3ccccc3C(=O)O)c3ccc(=[N+](CC)CC)cc-3oc2c1 [rhodamine, reference compound]",IC50,[1],> 1000 µM
same,Inhibition of UGT1A6 activity (in words),[1],did not inhibit
"O=S(=O)([O-])c1ccc2c(N=Nc3ccc(S(=O)(=O)[O-])c4ccccc34)c(O)c(S(=O)(=O)[O-])cc2c1.[Na+].[Na+].[Na+] [Amaranth (AM), amaranth]",Inhibition of CYP3A4 (in words),[3],noninhibition
same,IC50,[3],> 1000 µM
same,IC50,[4],> 1000 µM
same,Inhibition of UGT1A6 activity (in words),[1],insignificant inhibition
"COc1cc(S(=O)(=O)[O-])c(C)cc1N=Nc1c(O)ccc2cc(S(=O)(=O)[O-])ccc12.[Na+].[Na+] [Allura red (AL), allura red]",IC50,[3],> 1000 µM
same,IC50,[4]; [9],> 1000 µM
same,Inhibition of UGT1A6 activity (in words),[1],insignificant inhibition
"O=C(O)c1ccccc1-c1c2ccc(=O)cc-2oc2cc(O)ccc12 [Uranine, reference compound]",Inhibition of UGT1A6 activity (in words),[1],did not inhibit
same,IC50,[1]; [8],> 1000 µM
"CC(=O)N(CC(O)CN(C(C)=O)c1c(I)c(C(=O)NCC(O)CO)c(I)c(C(=O)NCC(O)CO)c1I)c1c(I)c(C(=O)NCC(O)CO)c(I)c(C(=O)NCC(O)CO)c1I (stereo not drawn) [iodixanol, reference compound]",Inhibition of UGT1A6 activity (in words),[1],no inhibition
"O=C(O)c1cc(N=C=S)ccc1-c1c2cc(Br)c(=O)c(Br)c-2oc2c(Br)c(O)c(Br)cc12 [Dye E5ic, Eosin-5-isothiocyanate, reference compound]",IC50,[1]; [8],70 µM
"CC(=O)Nc1c(I)c(NC(C)=O)c(I)c(C(=O)[O-])c1I.[Na+] [sodium diatrizoate, reference compound]",Inhibition of UGT1A6 activity (in words),[1],no inhibition
"O=C1/C(=C2\Nc3ccc(S(=O)(=O)[O-])cc3C2=O)Nc2ccc(S(=O)(=O)[O-])cc21.[Na+].[Na+] [Indigo carmine (ID), indigo carmine]",IC50,[3],> 1000 µM
same,IC50,[4],> 1000 µM
same,Inhibition of UGT1A6 activity (in words),[1],no inhibition
"CNC(=O)c1c(I)c(NC(C)=O)c(I)c(C(=O)O)c1I.CNC[C@H](O)[C@@H](O)[C@H](O)[C@H](O)CO [meglumine iotalamate, reference compound]",Inhibition of UGT1A6 activity (in words),[1],no inhibition
"CCN(Cc1cccc(S(=O)(=O)[O-])c1)c1ccc(C(=C2C=CC(=[N+](CC)Cc3cccc(S(=O)(=O)[O-])c3)C=C2)c2ccccc2S(=O)(=O)[O-])cc1.[Na+].[Na+] [Brilliant blue FCF (BB), brilliant blue FCF]",IC50,[3],> 1000 µM
same,IC50,[4],> 1000 µM
same,Inhibition of UGT1A6 activity (in words),[1],insignificant inhibition
c1ccc2c(c1)Cc1ccccc1O2 [Xanthene],IC50,[1],> 1000 µM
same,Inhibition of UGT1A6 activity (in words),[1],did not inhibit
